Measurements as given in ChEMBL document CHEMBL1125272, “Synthetic approaches to the guanosine and xanthosine analogues 5-amino-3-beta-D-ribofuranosylpyrazolo[3,4-e][1,3]oxazin-7-one and 3-beta-D-ribofuranosylpyrazolo[3,4-e][1,3]oxazine-5,7-dione and studies of their antitumor potential” (J Med Chem, 1991).

Tested on: L1210
Test: Capacity to inhibit tumor cells in vitro using L1210 murine leukemia cells
Type: functional, cell-based
Conditions: Mus musculus

Row | SMILES | IC50
1 | NC1=NC(=O)C2N=NC([C@@H]3O[C@H](CO)[C@@H](O)[C@H]3O)=C2O1 (some centres not stated) | 100 µM
2 | O=c1[nH]c(=O)c2[nH]nc([C@@H]3O[C@H](CO)[C@@H](O)[C@H]3O)c2o1 | 0.2 µM
